Reference: the supplement of paper PMC10733146

Experiments:
Experiment in all cases: viability relative to DMSO control (fraction); higher = less drug effect (more viable cells)
Details in all cases: 48 h
Pacritinib = compound: C1=N/C2=N/c3ccc(OCCN4CCCC4)c(c3)COC/C=C/COCc3cccc(c3)C(=C1)N2 [Pacritinib]
Outline: (§1)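 Viability is given as CellTiter-Glo luminescence relative to the median of 16 inner DMSO wells. Fresh or cryopreserved primary mononuclear tumour cells from blood, bone marrow (both Ficoll-isolated) or processed lymph node were plated at 4 × 10^4 cells per well in 384-well plates against five pre-plated compound concentrations, one well each. Incubation lasted 48 h at 37 °C and 5% CO2 in RPMI-1640 with penicillin/streptomycin, L-glutamine and human serum.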

Quizartinib = compound: CC(C)(C)c1cc(NC(=O)Nc2ccc(-c3cn4c(n3)sc3cc(OCCN5CCOCC5)ccc34)cc2)no1 [Quizartinib]
Outline: as §1

Carfilzomib = compound: CC(C)C[C@H](NC(=O)[C@H](CCc1ccccc1)NC(=O)CN1CCOCC1)C(=O)N[C@@H](Cc1ccccc1)C(=O)N[C@@H](CC(C)C)C(=O)[C@@]1(C)CO1 [Carfilzomib]
Outline: as §1

BEZ235 = compound: Cn1c(=O)n(-c2ccc(C(C)(C)C#N)cc2)c2c3cc(-c4cnc5ccccc5c4)ccc3ncc21 [BEZ235]
Outline: as §1

8-Azaguanin = compound: Nc1nc2n[nH]nc2c(=O)[nH]1 [8-Azaguanin]
Outline: as §1

Nilotinib = compound: Cc1cn(-c2cc(NC(=O)c3ccc(C)c(Nc4nccc(-c5cccnc5)n4)c3)cc(C(F)(F)F)c2)cn1 [Nilotinib]
Outline: as §1

AG-221 (Enasidinib) = compound: CC(C)(O)CNc1nc(Nc2ccnc(C(F)(F)F)c2)nc(-c2cccc(C(F)(F)F)n2)n1 [AG-221 (Enasidinib)]
Outline: as §1

Tozasertib = compound: Cc1cc(Nc2cc(N3CCN(C)CC3)nc(Sc3ccc(NC(=O)C4CC4)cc3)n2)n[nH]1 [Tozasertib]
Outline: as §1

Vincristine = compound: CC[C@]1(O)C[C@H]2CN(CCc3c([nH]c4ccccc34)[C@@](C(=O)OC)(c3cc4c(cc3OC)N(C=O)[C@H]3[C@@](O)(C(=O)OC)[C@H](OC(C)=O)[C@]5(CC)C=CCN6CC[C@]43[C@@H]65)C2)C1 [Vincristine]
Outline: as §1

ONO-4059 = compound: CC#CC(=O)N1CC[C@@H](n2c(=O)n(-c3ccc(Oc4ccccc4)cc3)c3c(N)ncnc32)C1 [ONO-4059]
Outline: as §1

Bortezomib = compound: CC(C)C[C@H](NC(=O)[C@H](Cc1ccccc1)NC(=O)c1cnccn1)B(O)O [Bortezomib]
Outline: as §1

BI6727 = compound: CC[C@@H]1C(=O)N(C)c2cnc(Nc3ccc(C(=O)N[C@H]4CC[C@H](N5CCN(CC6CC6)CC5)CC4)cc3OC)nc2N1C(C)C [BI6727]
Outline: as §1

Nelarabine = compound: COc1nc(N)nc2c1ncn2[C@@H]1O[C@H](CO)[C@@H](O)[C@@H]1O [Nelarabine]
Outline: as §1

EPZ-5676 = compound: CC(C)N(C[C@H]1O[C@@H](n2cnc3c(N)ncnc32)[C@H](O)[C@@H]1O)[C@H]1C[C@@H](CCc2nc3cc(C(C)(C)C)ccc3[nH]2)C1 [EPZ-5676]
Outline: as §1

For primary AML patient cells (S081), the viability (Pacritinib; 0.024 µM) was 1.04, the viability (Pacritinib; 0.12 µM) was 1.12 and the viability (Pacritinib; 0.6 µM) was 0.949. It also gave a viability (Pacritinib; 3 µM) of 0.514, a viability (Pacritinib; 15 µM) of 0.0165 and a viability (Quizartinib; 0.016 µM) of 1.04. It also gave a viability (Quizartinib; 0.08 µM) of 1.12, a viability (Quizartinib; 0.4 µM) of 1.04 and a viability (Quizartinib; 2 µM) of 1.1. It also gave a viability (Quizartinib; 10 µM) of 0.92, a viability (Carfilzomib; 0.00016 µM) of 0.961 and a viability (Carfilzomib; 0.0008 µM) of 0.976. The viability (Carfilzomib; 0.004 µM) was 0.551, the viability (Carfilzomib; 0.02 µM) was 0.0452 and the viability (Carfilzomib; 0.1 µM) was 0.0252. The viability (BEZ235; 0.024 µM) was 0.966, the viability (BEZ235; 0.12 µM) was 1.05 and the viability (BEZ235; 0.6 µM) was 0.956. For the same test system, the viability (BEZ235; 3 µM) was 1.04, the viability (BEZ235; 15 µM) was 0.711 and the viability (8-Azaguanin; 0.032 µM) was 1.05. The viability (8-Azaguanin; 0.16 µM) was 1.01, the viability (8-Azaguanin; 0.8 µM) was 0.87 and the viability (8-Azaguanin; 4 µM) was 0.686. The viability (8-Azaguanin; 20 µM) was 0.567, the viability (Nilotinib; 0.016 µM) was 1.17 and the viability (Nilotinib; 0.08 µM) was 1.03. For the same test system, the viability (Nilotinib; 0.4 µM) was 1.16, the viability (Nilotinib; 2 µM) was 1.12 and the viability (Nilotinib; 10 µM) was 1.2. It also gave a viability (AG-221 (Enasidinib); 0.024 µM) of 0.762, a viability (AG-221 (Enasidinib); 0.12 µM) of 0.758 and a viability (AG-221 (Enasidinib); 0.6 µM) of 0.937. For the same test system, the viability (AG-221 (Enasidinib); 3 µM) was 0.734, the viability (AG-221 (Enasidinib); 15 µM) was 0.793 and the viability (Tozasertib; 0.024 µM) was 0.975. For the same test system, the viability (Tozasertib; 0.12 µM) was 0.908, the viability (Tozasertib; 0.6 µM) was 0.912 and the viability (Tozasertib; 3 µM) was 0.957. The viability (Tozasertib; 15 µM) was 0.586, the viability (Vincristine; 0.016 µM) was 0.852 and the viability (Vincristine; 0.08 µM) was 0.825. The viability (Vincristine; 0.4 µM) was 0.777, the viability (Vincristine; 2 µM) was 0.708 and the viability (Vincristine; 10 µM) was 0.657. It also gave a viability (ONO-4059; 0.0016 µM) of 0.978, a viability (ONO-4059; 0.008 µM) of 1.02 and a viability (ONO-4059; 0.04 µM) of 0.98. It also gave a viability (ONO-4059; 0.2 µM) of 1.04, a viability (ONO-4059; 1 µM) of 1.07 and a viability (Bortezomib; 0.008 µM) of 0.893. The viability (Bortezomib; 0.04 µM) was 1.04, the viability (Bortezomib; 0.2 µM) was 0.97 and the viability (Bortezomib; 1 µM) was 1.14. It also gave a viability (Bortezomib; 5 µM) of 0.945, a viability (BI6727; 0.024 µM) of 0.938 and a viability (BI6727; 0.12 µM) of 0.884. For the same test system, the viability (BI6727; 0.6 µM) was 0.747, the viability (BI6727; 3 µM) was 0.347 and the viability (BI6727; 15 µM) was 0.0708. It also gave a viability (Nelarabine; 0.024 µM) of 1.09, a viability (Nelarabine; 0.12 µM) of 1.15 and a viability (Nelarabine; 0.6 µM) of 1.07. The viability (Nelarabine; 3 µM) was 1.22, the viability (Nelarabine; 15 µM) was 1.11 and the viability (EPZ-5676; 0.0032 µM) was 0.901. For the same test system, the viability (EPZ-5676; 0.016 µM) was 1.08, the viability (EPZ-5676; 0.08 µM) was 0.971 and the viability (EPZ-5676; 0.4 µM) was 1.02. For the same test system, the viability (EPZ-5676; 2 µM) was 1.09.

Work on primary ALL patient cells (S088) yielded a viability (Pacritinib; 0.024 µM) of 0.868, a viability (Pacritinib; 0.12 µM) of 0.843 and a viability (Pacritinib; 0.6 µM) of 0.707. The viability (Pacritinib; 3 µM) was 0.287, the viability (Pacritinib; 15 µM) was 0.0205 and the viability (Quizartinib; 0.016 µM) was 0.809. It also gave a viability (Quizartinib; 0.08 µM) of 0.765, a viability (Quizartinib; 0.4 µM) of 0.775 and a viability (Quizartinib; 2 µM) of 0.741. For the same test system, the viability (Quizartinib; 10 µM) was 0.676, the viability (Carfilzomib; 0.00016 µM) was 0.844 and the viability (Carfilzomib; 0.0008 µM) was 0.348. It also gave a viability (Carfilzomib; 0.004 µM) of 0.0398, a viability (Carfilzomib; 0.02 µM) of 0.0238 and a viability (Carfilzomib; 0.1 µM) of 0.0318. It also gave a viability (BEZ235; 0.024 µM) of 0.751, a viability (BEZ235; 0.12 µM) of 0.644 and a viability (BEZ235; 0.6 µM) of 0.529. For the same test system, the viability (BEZ235; 3 µM) was 0.427, the viability (BEZ235; 15 µM) was 0.254 and the viability (8-Azaguanin; 0.032 µM) was 0.783. The viability (8-Azaguanin; 0.16 µM) was 0.765, the viability (8-Azaguanin; 0.8 µM) was 0.346 and the viability (8-Azaguanin; 4 µM) was 0.269. For the same test system, the viability (8-Azaguanin; 20 µM) was 0.174, the viability (Nilotinib; 0.016 µM) was 1.16 and the viability (Nilotinib; 0.08 µM) was 1.16. The viability (Nilotinib; 0.4 µM) was 1.14, the viability (Nilotinib; 2 µM) was 1.22 and the viability (Nilotinib; 10 µM) was 1.26. It also gave a viability (AG-221 (Enasidinib); 0.024 µM) of 0.115, a viability (AG-221 (Enasidinib); 0.12 µM) of 0.151 and a viability (AG-221 (Enasidinib); 0.6 µM) of 0.435. It also gave a viability (AG-221 (Enasidinib); 3 µM) of 0.457, a viability (AG-221 (Enasidinib); 15 µM) of 0.661 and a viability (Tozasertib; 0.024 µM) of 0.727. The viability (Tozasertib; 0.12 µM) was 0.653, the viability (Tozasertib; 0.6 µM) was 0.501 and the viability (Tozasertib; 3 µM) was 0.382. It also gave a viability (Tozasertib; 15 µM) of 0.286, a viability (Vincristine; 0.016 µM) of 0.689 and a viability (Vincristine; 0.08 µM) of 0.494. It also gave a viability (Vincristine; 0.4 µM) of 0.335, a viability (Vincristine; 2 µM) of 0.302 and a viability (Vincristine; 10 µM) of 0.256. For the same test system, the viability (ONO-4059; 0.0016 µM) was 1.03, the viability (ONO-4059; 0.008 µM) was 1.14 and the viability (ONO-4059; 0.04 µM) was 1.07. For the same test system, the viability (ONO-4059; 0.2 µM) was 1.04, the viability (ONO-4059; 1 µM) was 1.02 and the viability (Bortezomib; 0.008 µM) was 1.02. The viability (Bortezomib; 0.04 µM) was 0.948, the viability (Bortezomib; 0.2 µM) was 0.906 and the viability (Bortezomib; 1 µM) was 0.92. It also gave a viability (Bortezomib; 5 µM) of 0.916, a viability (BI6727; 0.024 µM) of 0.796 and a viability (BI6727; 0.12 µM) of 0.833. For the same test system, the viability (BI6727; 0.6 µM) was 0.634, the viability (BI6727; 3 µM) was 0.358 and the viability (BI6727; 15 µM) was 0.078. It also gave a viability (Nelarabine; 0.024 µM) of 0.974, a viability (Nelarabine; 0.12 µM) of 0.98 and a viability (Nelarabine; 0.6 µM) of 0.967. The viability (Nelarabine; 3 µM) was 0.886, the viability (Nelarabine; 15 µM) was 0.75 and the viability (EPZ-5676; 0.0032 µM) was 0.74. The viability (EPZ-5676; 0.016 µM) was 0.922, the viability (EPZ-5676; 0.08 µM) was 0.812 and the viability (EPZ-5676; 0.4 µM) was 0.874. It also gave a viability (EPZ-5676; 2 µM) of 0.917.
